Results published in patent US9127079B2, “Inhibitors of phosphatase and tensin homolog (PTEN) conjugates” (THE UNIVERSITY OF BRITISH COLUMBIA, priority 2009, dated 2015).

Experiments:
[1] = system: PTEN; test: Immunostaining of endogenous PTEN: nuclear translocation in cultured neurons with NMDA; assay type: cell-based, rat; conditions: peptide 10 uM, NMDA stimulation
Procedure: Dissociated cultures of rat cortical or hippocampal neurons were prepared from 18-d-old Sprague Dawley rat embryos as described previously (Mielke and Wang 2005). To obtain mixed cultures enriched with neurons, uridine (10 μM) and 5-Fluor-T-deoxyuridine (10 μM) were added to the culture medium at 3 d in vitro (DIV) and maintained for 48 h to inhibit non-neuronal cell proliferation before the cultures were returned to the normal culture medium. Mature neurons (12-14 DIV) were used for experiments.
In order to induce excitotoxicity, 12-14 DIV cultured neurons were washed and transferred to Mg2+-free extracellular solution (ECS) containing the following (in mM): 25 HEPES acid, 140 NaCl, 33 glucose, 5.4 KCl, and 1.3 CaCl2, with pH 7.35 and osmolarity 320-330 mOsm. ECS and subjected to NMDA-induced excitotoxicity (20 μM NMDA, 10 μM glycine, 60 min at room temperature) or any other experimental conditions as indicated in the texts. Cells were then washed twice with normal ECS, and returned to the original growth conditions until additional assay.

[2] = Cortical glucose metabolism by FDG-PET after cerebral ischemia; assay type: in vivo, rat; conditions: one week after treatment
Procedure: (§1) Adult male Sprague-Dawley rats (weight 200 g) were used in this study. All surgical procedures were performed using sterile/aseptic techniques in accordance with Institutional guidelines. Rats were anesthetized with chloral hydrate (0.4 g/kg IP) and subjected to cerebral ischemia. Ligation of the right middle cerebral artery (MCA) and bilateral common carotids arteries (CCAs) was performed by methods described previously (Shyu et al. 2005). The CCAs were clamped with non-traumatic arterial clips. The right MCA was ligated with a 10-0 nylone suture. After 90 min of ischemia, the suture on the MCA and the arterial clips on the CCAs were removed to allow reperfusion. Core body temperature was monitored with a thermistor probe (Hewlett-Packard™ Model 21090A probe, Hewlett-Packard Company™, Andover, Mass.), and maintained at 37° C. with a heating pad during anesthesia. After recovery from anesthesia, rat body temperature was maintained at 37° C. with a heat lamp. Experimental rats were subdivided into five groups receiving different types of interference peptides, all fused to a TAT protein transduction domain (PTEN-K13 (SEQ ID NO: 2) 2 hrs or 6 hrs, PTEN-K13R (SEQ ID NO: 3), PTEN-K289 (SEQ ID NO: 4), and vehicle control) via femoral vein with dosage of 8.4 mg/kg at 2 or 6 hours after MCA ligation for three consecutive days. […]

[3] = Body asymmetry (elevated body swing test) after cerebral ischemia; assay type: in vivo, rat; conditions: vs Peptide-K13R, Peptide-K289, saline
Procedure: as §1, with “anesthesia.” for “anesthesia. After recovery from anesthesia, rat body temperature was maintained at 37° C. with a heat lamp. Experimental rats were subdivided into five groups receiving different types of interference peptides, all fused to a TAT protein transduction domain (PTEN-K13 (SEQ ID NO: 2) 2 hrs or 6 hrs, PTEN-K13R (SEQ ID NO: 3), PTEN-K289 (SEQ ID NO: 4), and vehicle control) via femoral vein with dosage of 8.4 mg/kg at 2 or 6 hours after MCA ligation for three consecutive days.”
(§2) Behavioral assessments were measured on day 28 after stroke. […] The baseline-test scores were recorded in order to normalize those taken after cerebral ischemia. The elevated body swing test (EBST) was used to assess body asymmetry after MCA ligation and evaluated quantitatively as previously described (Shyu et al. 2004). […] The frequency of initial head swing contra-lateral to the ischemic side was counted in twenty continuous tests and was normalized, as follows: % recovery=[1−(lateral swings in twenty tests−10)/10×100%. […]

[4] = Forelimb grip strength after cerebral ischemia; assay type: in vivo, rat; conditions: before vs 28 days after ischemia
Procedure: as §1, with “anesthesia.” for “anesthesia. After recovery from anesthesia, rat body temperature was maintained at 37° C. with a heat lamp. Experimental rats were subdivided into five groups receiving different types of interference peptides, all fused to a TAT protein transduction domain (PTEN-K13 (SEQ ID NO: 2) 2 hrs or 6 hrs, PTEN-K13R (SEQ ID NO: 3), PTEN-K289 (SEQ ID NO: 4), and vehicle control) via femoral vein with dosage of 8.4 mg/kg at 2 or 6 hours after MCA ligation for three consecutive days.”
as §2

[5] = Transgenic G37R SOD1 mouse model of ALS: survival and behavioural outcomes; assay type: in vivo; conditions: IP 16 mg/kg 3 times a week
Procedure: Transgenic mice expressing G37R SOD1 (G37R) at almost 8 months of age and having no apparent pathologic symptoms were double blinded with a designated code and divided into 3 groups of 12 mice (6 male and 6 female) maintained on a pure C57BL6 background in the local animal facility under a 12 h light cycle with food and drinking water ad libitum. All mice were genotyped by PCR. The use of animals as described in this study was carried out according to The Guide to the Care and Use of Experimental Animals of the Canadian Council on Animal Care. […].
Body weight and neurological scores such as HLR scores and Rota Rod functions were regularly monitored and recorded. End points and survival dates were determined when mice were not able to stand up within 20 s when moved on the side. Disabled mice were anesthetized and sacrificed according to the guidelines of The University of British Columbia for the care and use of laboratory animals. All collected data were subjected to statistical analysis using Kaplan-Meier plots and Log-rank tests.

KEIVSRNKRRYQED-YGRKKRRQRRR (KEIVSRNKRRYQEDYGRKKRRQRRR; PTEN K13 interference peptide conjugated to TAT protein transduction domain) [Peptide-K13]
PTEN nuclear translocation (endogenous PTEN immunostaining) [1]: prevented PTEN nuclear translocation
FDG uptake over the right cortex (microPET) ([2]; i.v. 8.4 mg/kg given 2 hours after ischemia onset): striking increase
FDG uptake over the right cortex (microPET) ([2]; i.v. 8.4 mg/kg given 6 hours after ischemia onset): striking increase
recovery in body swing tests ([3]; given 2 hours after ischemia): much more recovery
recovery in body swing tests ([3]; given 6 hours after ischemia): much more recovery
forelimb grip strength ratio ([4]; given 2 hours after ischemia): much better strength ratio
forelimb grip strength ratio ([4]; given 6 hours after ischemia): much better strength ratio
behavioural outcomes ([5]; female ALS mice): improves behavioural outcomes
survival ([5]; female ALS mice): prolongs the survival
survival ([5]; male ALS mice): no statistically significant improvement
